Values of other authors in Sander's compilation of Henry's law constants.
Several values for one entry are separate records, joined by “and”; a condition that tells them apart may be missing. Identical values can stand only once.

Assay: Henry solubility constant Hcp at 298.15 K (mol/(m3 Pa))
Conditions: cited value
[1] = reference: Burkholder et al. (2015)
[2] = reference: Burkholder et al. (2019)
[3] = reference: Sander et al. (2011)
[4] = reference: Barcelo and Hennion (1997)
[5] = reference: Sander et al. (2006)
[6] = reference: Mackay et al. (1995)

## CCCCC(C)CC (stereo not given) [3-methylheptane]
reference: Brockbank (2013)
  Henry solubility constant Hcp: 2.6e-06

## CCOC(=O)C(F)(F)F [trifluoroethanoic acid, ethyl ester]
[1]
  Henry solubility constant Hcp: 0.00089
[2]
  Henry solubility constant Hcp: 0.00089
[3]
  Henry solubility constant Hcp: 0.00089

## CCCCN(CC)C(=O)SCCC [pebulate]
[4]
  Henry solubility constant Hcp: 0.00084

## [O]N=O [nitrogen dioxide]
[1]
  Henry solubility constant Hcp: 0.00012
[2]
  Henry solubility constant Hcp: 0.00012
[5]
  Henry solubility constant Hcp: 0.00014
[3]
  Henry solubility constant Hcp: 0.00012
reference: Schwartz and White (1981)
  Henry solubility constant Hcp: 0.00012

## CC(=O)C(F)(F)F [1,1,1-trifluoro-2-propanone]
[1]
  Henry solubility constant Hcp: 1.4
[2]
  Henry solubility constant Hcp: 1.4
[3]
  Henry solubility constant Hcp: 1.4

## CC(=O)OCC(C)C [2-methylpropyl ethanoate]
reference: Brockbank (2013)
  Henry solubility constant Hcp: 0.026

## COP(=S)(OC)Oc1ccc(SC)c(C)c1 [fenthion]
[4]
  Henry solubility constant Hcp: 0.45

## C1CCCC1 [cyclopentane]
reference: Brockbank (2013)
  Henry solubility constant Hcp: 5.8e-05

## CCNc1nc(NC(C)C)nc(SC)n1 [ametryn]
[4]
  Henry solubility constant Hcp: 82

## c1ccc(Oc2ccccc2)cc1 [diphenyl ether]
reference: Brockbank (2013)
  Henry solubility constant Hcp: 0.019

## O=[N+]([O-])c1ccccc1 [nitrobenzene]
reference: Brockbank (2013)
  Henry solubility constant Hcp: 0.47
reference: Goldstein (1982)
  Henry solubility constant Hcp: 0.47
[6]
  Henry solubility constant Hcp: 0.75

## CCBr [bromoethane]
reference: Brockbank (2013)
  Henry solubility constant Hcp: 0.0013
[2]
  Henry solubility constant Hcp: 0.0013

## O=C(O)C(Cl)Cl [dichloroethanoic acid]
[1]
  Henry solubility constant Hcp: 1200
[2]
  Henry solubility constant Hcp: 1200
[3]
  Henry solubility constant Hcp: 1200

## CCCCC(O)(Cn1cncn1)c1ccc(Cl)cc1Cl (stereo not given) [hexaconazole]
[4]
  Henry solubility constant Hcp: 28

## S=C=S [carbon disulfide]
[1]
  Henry solubility constant Hcp: 0.00061
[2]
  Henry solubility constant Hcp: 0.00061
reference: Goldstein (1982)
  Henry solubility constant Hcp: 0.00075
[5]
  Henry solubility constant Hcp: 0.00061
[3]
  Henry solubility constant Hcp: 0.00061

## O=[N+]([O-])c1ccc(O)cc1 [4-nitrophenol]
reference: Goldstein (1982)
  Henry solubility constant Hcp: 9.8

## CCCCO[N+](=O)[O-] [1-butyl nitrate]
[1]
  Henry solubility constant Hcp: 0.01
[2]
  Henry solubility constant Hcp: 0.01
[5]
  Henry solubility constant Hcp: 0.01
[3]
  Henry solubility constant Hcp: 0.01

## ClCCl [dichloromethane]
reference: Brockbank (2013)
  Henry solubility constant Hcp: 0.0037
[1]
  Henry solubility constant Hcp: 0.0039
[2]
  Henry solubility constant Hcp: 0.0039
reference: Dilling (1977)
  Henry solubility constant Hcp: 0.0037
reference: Dilling et al. (1975)
  Henry solubility constant Hcp: 0.0037
reference: Goldstein (1982)
  Henry solubility constant Hcp: 0.0031
reference: Harrison et al. (1993)
  Henry solubility constant Hcp: 0.0042 and 0.0034
[5]
  Henry solubility constant Hcp: 0.0036
[3]
  Henry solubility constant Hcp: 0.0036

## COC(=O)Nc1cccc(OC(=O)Nc2cccc(C)c2)c1 [phenmedipham]
[4]
  Henry solubility constant Hcp: 120000

## CCCCCCCCC [nonane]
reference: Brockbank (2013)
  Henry solubility constant Hcp: 2.3e-06

## CCSC(=O)N(CC(C)C)CC(C)C [butylate]
[4]
  Henry solubility constant Hcp: 0.018

## CCSC [ethyl methyl sulfide]
[1]
  Henry solubility constant Hcp: 0.0042
[2]
  Henry solubility constant Hcp: 0.0042

## O=C(O)CCCC(=O)O [pentanedioic acid]
[1]
  Henry solubility constant Hcp: 3.8e+07
[2]
  Henry solubility constant Hcp: 3.8e+07

## CC(C1CC1)C(O)(Cn1cncn1)c1ccc(Cl)cc1 (stereo not given) [cyproconazole]
[4]
  Henry solubility constant Hcp: 130

## [Cl][Hg][Cl] [mercury dichloride]
reference: Kanefke (2008)
  Henry solubility constant Hcp: 13000
reference: Lindqvist and Rodhe (1985)
  Henry solubility constant Hcp: 14000
reference: Shon et al. (2005)
  Henry solubility constant Hcp: 240000
reference: WHO (1990)
  Henry solubility constant Hcp: 14000

## Brc1ccc(Br)c(Br)c1 [1,2,4-tribromobenzene]
reference: Kuramochi et al. (2004)
  Henry solubility constant Hcp: 0.029

## CC(C)CC(=O)CC(C)C [2,6-dimethyl-4-heptanone]
reference: Brockbank (2013)
  Henry solubility constant Hcp: 0.013

## CCCCCCI [1-iodohexane]
reference: Brockbank (2013)
  Henry solubility constant Hcp: 0.00034

## C=CC(C)=O [3-buten-2-one]
[1]
  Henry solubility constant Hcp: 0.4
[2]
  Henry solubility constant Hcp: 0.4

## CCCC [butane]
[1]
  Henry solubility constant Hcp: 1.2e-05
[2]
  Henry solubility constant Hcp: 1.2e-05
reference: Deno and Berkheimer (1960)
  Henry solubility constant Hcp: 1.1e-05
reference: Hayduk (1986)
  Henry solubility constant Hcp: 1.2e-05
[5]
  Henry solubility constant Hcp: 1.2e-05
[3]
  Henry solubility constant Hcp: 1.2e-05

## CCCCOC(=O)CC [butyl propanoate]
reference: Brockbank (2013)
  Henry solubility constant Hcp: 0.022

## CC(C)Cl [2-chloropropane]
reference: Brockbank (2013)
  Henry solubility constant Hcp: 0.00057

## CC(C)C(=O)C(C)C [2,4-dimethyl-3-pentanone]
reference: Brockbank (2013)
  Henry solubility constant Hcp: 0.023

## O=NN(c1ccccc1)c1ccccc1 [N-nitrosodiphenylamine]
[6]
  Henry solubility constant Hcp: 0.015

## CCCCC(O)CC (stereo not given) [3-heptanol]
reference: Brockbank (2013)
  Henry solubility constant Hcp: 0.32

## CCOC1Oc2ccc(OS(C)(=O)=O)cc2C1(C)C (stereo not given) [ethofumesate]
[4]
  Henry solubility constant Hcp: 45
